For 25 compounds, activity and melting point results are on record in patent US7067520B2, “Preventive or therapeutic medicines for diabetes containing fused-heterocyclic compounds or their salts” (Ishihara Sangyo Kaisha, Ltd., priority 2000, dated 2006).

Data set [1] concerns L6 cells. As to the kind of experiment: Glucose uptake test by L6 cells. The following applies: Rattus norvegicus, 1 hour, 2-deoxy-[3H]-glucose uptake, control (MEM solvent alone) = 100%, read-out: Ratio activity (%); for activity at 10 µg/mL: treatment concentration 10 μg/ml; for activity at 100 µg/mL: treatment concentration 100 μg/ml. It counts as cell-based. On the procedure: Glucose Uptake Test by L6 Cells
Each of compounds under test was applied to L6 cells (rat cells originally derived from skeletal muscles) by the following method to measure the stimulating effect on glucose uptake. Namely, L6 cells were suspended in α-minimum essential medium (hereinafter referred to simply as MEM) containing 10% fetal bovine serum (hereinafter referred to simply as FBS), and inoculated into a 96-well plastic plate in an amount of 5×10^4 cells/well and cultivated in an incubator (5% carbon dioxide gas, 37° C.) until the cells grew all over the well. Then, the culture medium was switched to MEM solution containing 2% BS, followed by cultivation further for from 7 to 10 ays (the culture medium was exchanged every three days) to differentiate the cells into skeletal muscle cells. Then, the culture medium was replaced with MEM solution without FBS, followed by cultivation for three hours, and then the compound under test prepared to a treatment concentration (diluted with MEM solution without FBS) was reacted with the skeletal muscle cells at 37° C. for 1 hour. The cells were washed with Krebs-Henseleit-Ringer buffer solution (hereinafter referred to simply as KHR buffer solution), and 2-deoxy-[^3H]-glucose was added to the cells in the KHR buffer solution, followed by treatment at 37° C. for 10 minutes. The treatment solution was removed, the cells were washed with the KHR buffer solution, then the cells were dissolved in a 1N sodium hydroxide solution in an appropriate amount, and the [^3H] radio activity was measured by means of a liquid scintillation counter (cpm) The percentage of the glucose uptake was represented by the percentage of radio activity when the compound under test was applied, taking the radio activity of the control (the MEM solvent alone was applied) as 100%. Each of the compounds as identified in Table 27 was used for treatment at a concentration of each of 10 μg/ml and 100 μg/ml to examine the stimulating effect on glucose uptake.

SMILES strings stand for the structures. Bounds are passed on as bounds.

A word on the melting point: it is the temperature, or range, at which the solid turns liquid. `CSc1nc2ccnn2c(NC2CCCC2)c1C#N` [compound 79] had a melting point of 118 °C. In data set [1], the activity at 10 µg/mL was more than 115%.
`CSc1nc2ccnn2c(NCCC2OCCO2)c1C#N` [compound 210]: the melting point was 96 to 97 °C. For the same compound, in data set [1], the activity at 10 µg/mL was more than 115% and the activity at 100 µg/mL is more than 115%.
In the case of `COC(=O)c1c(SC)nc2ccnn2c1NOC1OCCO1` [compound 133], the melting point is 126.5 to 127.5 °C. In data set [1], the activity at 10 µg/mL was more than 115%.
On to `CSc1nc2ccnn2c(NCc2ccccn2)c1C#N` [Compound No. 5], for which the melting point was determined as 190 °C. Also, the activity at 100 µg/mL in data set [1] was more than 115%.
As to `CSc1nc(NCc2ccncc2)n2nccc2n1` [compound 40], the melting point amounted to 136 °C. Besides, in data set [1], the activity at 10 µg/mL is more than 115% and the activity at 100 µg/mL was more than 115%.
The compound `COc1nc2ccnn2c(NCc2ccccc2)c1C#N` [compound 135] yielded a melting point of 148.8 to 149.6 °C. Further, in data set [1], the activity at 10 µg/mL was more than 115% and the activity at 100 µg/mL is more than 115%.
`CSc1nc2nccn2c(NCc2ccncc2)c1C#N` [compound 43]: the melting point worked out at 204 °C. In addition, in data set [1], the activity at 10 µg/mL is more than 115% and the activity at 100 µg/mL was more than 115%.
`CSc1nc2cc(-c3ccccc3)nn2c(NCc2ccncc2)c1C#N` [compound 48] returned a melting point of 232 °C. Moreover, the activity at 100 µg/mL in data set [1] is more than 115%.
Compound `CSc1nc2ccnn2c(NCCc2ccccn2)c1C#N` [compound 206] gave a melting point of 138 to 139 °C. Besides, in data set [1], the activity at 10 µg/mL is more than 115%.
As to `CSc1nc2ccnn2c(NCCC#N)c1C#N` [compound 82], the melting point came to 188 °C. Moreover, the activity at 10 µg/mL in data set [1] is more than 115%.
In turn, `COC(=O)c1c(SC)nc2ccnn2c1NCc1ccccc1` [compound 120] registered a melting point of 124.5 to 126.5 °C. Besides, the activity at 10 µg/mL in data set [1] is more than 115%.
On to `Cc1nc2ccnn2c(NCc2ccncc2)c1C#N` [compound 29], for which the melting point was determined as 165 °C. In addition, in data set [1], the activity at 100 µg/mL is more than 115%.
Regarding `CSc1nc2ccnn2c(Nc2cccnc2)c1C#N` [compound 178], the melting point lay in the range of 214 to 215 °C. In data set [1], the activity at 10 µg/mL is more than 115% and the activity at 100 µg/mL was more than 115%.
For `CSc1nc2nc3ccccc3n2c(NCc2ccccc2)c1C#N` [compound 47], the melting point came to 233 °C. Further, in data set [1], the activity at 100 µg/mL is more than 115%.
For the compound `CSc1nc2ccnn2c(NCc2ccncc2)c1[N+](=O)[O-]` [compound 126], the melting point was 154 to 155 °C. Further, the activity at 10 µg/mL in data set [1] is more than 115%.
`N#Cc1cnc2ccnn2c1NCc1ccccc1` [compound 28] showed a melting point of 125 °C. For the same compound, the activity at 100 µg/mL in data set [1] is more than 115%.
With `COC(=O)c1c(SC)nc2ccnn2c1Nc1ccccc1` [compound 122], in data set [1], the activity at 10 µg/mL was more than 115% and the activity at 100 µg/mL was more than 115%.
Take `CSc1nc2ccnn2c(NOCc2ccccc2)c1C(=O)O` [compound 132]: in data set [1], the activity at 100 µg/mL was more than 115%.
In the case of `Cc1nc2ccnn2c(N)c1C#N` [compound 25], the activity at 100 µg/mL in data set [1] was more than 115%.
`CSc1ccc(Nc2c(C#N)c(SC)nc3ccnn23)cc1` [compound 196] showed a melting point of 190 to 191 °C.
The same measure, in the same setting: as for `COC(=O)c1cccc(Nc2c(C#N)c(SC)nc3ccnn23)c1` [compound 194], the figure is 153 to 155 °C; as for `CSc1nc2ccnn2c(Nc2cccc(C(=O)O)c2)c1C#N` [compound 195], 168 to 171 °C.
In turn, `CSc1nc2ccnn2c(NCc2ccccc2Cl)c1C#N` [compound 33] had a melting point of 160 °C.
In the case of `COc1ccc(Nc2c(C#N)c(SC)nc3ccnn23)cc1` [compound 169], the melting point lay in the range of 214 to 215 °C.
Turning to `CSc1nc2ccnn2c(NCCC(C)C)c1C#N` [compound 19], the melting point was 87 to 88 °C.
